What follows are compounds tested on HCT116 colorectal cancer cells (assay: Cisplatin sensitization assay (96 h MTS cell viability)). Conditions: Cisplatin sensitization value.
Type: cell-based
How it was run: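 HCT116 cells were dosed simultaneously with compound and cisplatin as a full matrix of 2-fold serial dilutions from 10 μM top final concentration. Incubation was 96 h at 37° C., 5% CO2, followed by 1 h with MTS reagent for the viability read-out. Sensitization values were binned into +++, ++ and + categories.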
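Further: compound concentration needed to lower the IC50 of Cisplatin alone by a set fold.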

| SMILES | Cisplatin Sensitization Assay |
| --- | --- |
| CN1CCN(C2CCN(c3ccncc3NC(=O)c3c(N)nn4cc(Cl)cnc34)CC2)CC1 [I-N-97, 2-amino-6-chloro-N-(4-(4-(4-methylpiperazin-1-yl)piperidin-1-yl)pyridin-3-yl)pyrazolo[1,5-a]pyrimidine-3-carboxamide] | +++ (Compounds with a Cisplatin sensitization value of <0.02 μM are marked with “+++.”) |
| Nc1nn2cc(Cl)cnc2c1C(=O)Nc1cnccc1N1CCC(N2CCC3(COC3)C2)CC1 [I-N-99, N-(4-(4-(2-oxa-6-azaspiro[3.4]octan-6-yl)piperidin-1-yl)pyridin-3-yl)-2-amino-6-chloropyrazolo[1,5-a]pyrimidine-3-carboxamide] | +++ (Compounds with a Cisplatin sensitization value of <0.02 μM are marked with “+++.”) |
| Nc1nn2cc(Cl)cnc2c1C(=O)Nc1cnccc1N1CCC(N2CC[S+]([O-])CC2)CC1 [I-N-100, 2-amino-6-chloro-N-(4-(4-(1-oxidothiomorpholino)piperidin-1-yl)pyridin-3-yl)pyrazolo[1,5-a]pyrimidine-3-carboxamide] | ++ (Compounds with a Cisplatin sensitization value >0.02 μM but <0.2 μM are marked with “++.”) |
| Nc1nn2cc(Cl)cnc2c1C(=O)Nc1cnccc1N1CCC(N2CCn3cncc3C2)CC1 [I-N-101, 2-amino-6-chloro-N-(4-(4-(5,6-dihydroimidazo[1,5-a]pyrazin-7(8H)-yl)piperidin-1-yl)pyridin-3-yl)pyrazolo[1,5-a]pyrimidine-3-carboxamide] | ++ (Compounds with a Cisplatin sensitization value >0.02 μM but <0.2 μM are marked with “++.”) |
| Nc1nn2cc(Cl)cnc2c1C(=O)Nc1cnccc1N1CCC(N2CCn3ccnc3C2)CC1 [I-N-102, 2-amino-6-chloro-N-(4-(4-(5,6-dihydroimidazo[1,2-a]pyrazin-7(8H)-yl)piperidin-1-yl)pyridin-3-yl)pyrazolo[1,5-a]pyrimidine-3-carboxamide] | ++ (Compounds with a Cisplatin sensitization value >0.02 μM but <0.2 μM are marked with “++.”) |
| Nc1nn2cc(Cl)cnc2c1C(=O)Nc1cnccc1N1CCC(N2CC[C@H](F)C2)CC1 [I-N-103, (S)-2-amino-6-chloro-N-(4-(4-(3-fluoropyrrolidin-1-yl)piperidin-1-yl)pyridin-3-yl)pyrazolo[1,5-a]pyrimidine-3-carboxamide] | +++ (Compounds with a Cisplatin sensitization value of <0.02 μM are marked with “+++.”) |
| Nc1nn2cc(Cl)cnc2c1C(=O)Nc1cnccc1N1CCC(N2CCOCC2)CC1 [I-N-104, 2-amino-6-chloro-N-(4-(4-morpholinopiperidin-1-yl)pyridin-3-yl)pyrazolo[1,5-a]pyrimidine-3-carboxamide] | +++ (Compounds with a Cisplatin sensitization value of <0.02 μM are marked with “+++.”) |
| Nc1nn2cc(Cl)cnc2c1C(=O)Nc1cnccc1N1CCC(N2CCCC2)CC1 [I-N-105, 2-amino-6-chloro-N-(4-(4-(pyrrolidin-1-yl)piperidin-1-yl)pyridin-3-yl)pyrazolo[1,5-a]pyrimidine-3-carboxamide] | +++ (Compounds with a Cisplatin sensitization value of <0.02 μM are marked with “+++.”) |
| CN(C)C1CCN(C2CCN(c3ccncc3NC(=O)c3c(N)nn4cc(Cl)cnc34)CC2)C1 (centres unmarked) [I-N-106, 2-amino-6-chloro-N-(4-(4-(3-(dimethylamino)pyrrolidin-1-yl)piperidin-1-yl)pyridin-3-yl)pyrazolo[1,5-a]pyrimidine-3-carboxamide] | +++ (Compounds with a Cisplatin sensitization value of <0.02 μM are marked with “+++.”) |
| COC1CN(C2CCN(c3ccncc3NC(=O)c3c(N)nn4cc(Cl)cnc34)CC2)C1 [I-N-107, 2-amino-6-chloro-N-(4-(4-(3-methoxyazetidin-1-yl)piperidin-1-yl)pyridin-3-yl)pyrazolo[1,5-a]pyrimidine-3-carboxamide] | +++ (Compounds with a Cisplatin sensitization value of <0.02 μM are marked with “+++.”) |
| Nc1nn2cc(Cl)cnc2c1C(=O)Nc1cnccc1N1CCC(N2CC(F)(F)C2)CC1 [I-N-108, 2-amino-6-chloro-N-(4-(4-(3,3-difluoroazetidin-1-yl)piperidin-1-yl)pyridin-3-yl)pyrazolo[1,5-a]pyrimidine-3-carboxamide] | +++ (Compounds with a Cisplatin sensitization value of <0.02 μM are marked with “+++.”) |
| Nc1nn2cc(Cl)cnc2c1C(=O)Nc1cnccc1N1CCC(N2CCC23COC3)CC1 [I-N-109, N-(4-(4-(6-oxa-1-azaspiro[3.3]heptan-1-yl)piperidin-1-yl)pyridin-3-yl)-2-amino-6-chloropyrazolo[1,5-a]pyrimidine-3-carboxamide] | +++ (Compounds with a Cisplatin sensitization value of <0.02 μM are marked with “+++.”) |
| CN1CCN(c2c(NC(=O)c3c(N)nn4cc(F)cnc34)cncc2C(F)F)CC1 [I-N-111, 2-amino-N-(5-(difluoromethyl)-4-(4-methylpiperazin-1-yl)pyridin-3-yl)-6-fluoropyrazolo[1,5-a]pyrimidine-3-carboxamide] | ++ (Compounds with a Cisplatin sensitization value >0.02 μM but <0.2 μM are marked with “++.”) |
| Nc1nn2cc(F)cnc2c1C(=O)Nc1cnccc1N1CCN(C2COC2)C2CC21 (centres unmarked) [I-N-112, 2-amino-6-fluoro-N-(4-(5-(oxetan-3-yl)-2,5-diazabicyclo[4.1.0]heptan-2-yl)pyridin-3-yl)pyrazolo[1,5-a]pyrimidine-3-carboxamide] | + (Compounds with a Cisplatin sensitization value >0.2 μM but <5 μM are marked with “+.”) |
| CN1CCN(c2c(C#N)cncc2NC(=O)c2c(N)nn3cc(F)cnc23)CC1 [I-N-113, 2-amino-N-(5-cyano-4-(4-methylpiperazin-1-yl)pyridin-3-yl)-6-fluoropyrazolo[1,5-a]pyrimidine-3-carboxamide] | + (Compounds with a Cisplatin sensitization value >0.2 μM but <5 μM are marked with “+.”) |
| Nc1nn2cc(F)cnc2c1C(=O)Nc1cnccc1N1CCN2CCOC[C@@H]2C1 [I-N-115, (S)-2-amino-6-fluoro-N-(4-(hexahydropyrazino[2,1-c][1,4]oxazin-8(1H)-yl)pyridin-3-yl)pyrazolo[1,5-a]pyrimidine-3-carboxamide] | +++ (Compounds with a Cisplatin sensitization value of <0.02 μM are marked with “+++.”) |
| Nc1nn2cc(F)cnc2c1C(=O)Nc1cnccc1N1CCN2CCOC[C@H]2C1 [I-N-116, (R)-2-amino-6-fluoro-N-(4-(hexahydropyrazino[2,1-c][1,4]oxazin-8(1H)-yl)pyridin-3-yl)pyrazolo[1,5-a]pyrimidine-3-carboxamide] | ++ (Compounds with a Cisplatin sensitization value >0.02 μM but <0.2 μM are marked with “++.”) |
| Nc1nn2cc(Cl)cnc2c1C(=O)Nc1cncc(F)c1N1CCN(C2COC2)CC1 [I-N-117, 2-amino-6-chloro-N-(5-fluoro-4-(4-(oxetan-3-yl)piperazin-1-yl)pyridin-3-yl)pyrazolo[1,5-a]pyrimidine-3-carboxamide] | +++ (Compounds with a Cisplatin sensitization value of <0.02 μM are marked with “+++.”) |
| Nc1nn2cc(F)cnc2c1C(=O)Nc1cncc(F)c1N1CCNCC1 [I-N-118, 2-amino-6-fluoro-N-(5-fluoro-4-(piperazin-1-yl)pyridin-3-yl)pyrazolo[1,5-a]pyrimidine-3-carboxamide] | +++ (Compounds with a Cisplatin sensitization value of <0.02 μM are marked with “+++.”) |
| Nc1nn2cc(F)cnc2c1C(=O)Nc1cncc(C2CC2)c1N1CCN([C@@H]2CCOC2)CC1 [I-N-119, (R)-2-amino-N-(5-cyclopropyl-4-(4-(tetrahydrofuran-3-yl)piperazin-1-yl)pyridin-3-yl)-6-fluoropyrazolo[1,5-a]pyrimidine-3-carboxamide] | ++ (Compounds with a Cisplatin sensitization value >0.02 μM but <0.2 μM are marked with “++.”) |
| Nc1nn2cc(F)cnc2c1C(=O)Nc1cncc(C2CC2)c1N1CCN([C@H]2CCOC2)CC1 [I-N-120, (S)-2-amino-N-(5-cyclopropyl-4-(4-(tetrahydrofuran-3-yl)piperazin-1-yl)pyridin-3-yl)-6-fluoropyrazolo[1,5-a]pyrimidine-3-carboxamide] | +++ (Compounds with a Cisplatin sensitization value of <0.02 μM are marked with “+++.”) |
| Nc1nn2cc(F)cnc2c1C(=O)Nc1cncc(F)c1N1CCN(C2CCOCC2)CC1 [I-N-121, 2-amino-6-fluoro-N-(5-fluoro-4-(4-(tetrahydro-2H-pyran-4-yl)piperazin-1-yl)pyridin-3-yl)pyrazolo[1,5-a]pyrimidine-3-carboxamide] | +++ (Compounds with a Cisplatin sensitization value of <0.02 μM are marked with “+++.”) |
| Nc1nn2cc(F)cnc2c1C(=O)Nc1cncc(F)c1N1CCN(C2CCOC2)CC1 (centres unmarked) [I-N-122, 2-amino-6-fluoro-N-(5-fluoro-4-(4-(tetrahydrofuran-3-yl)piperazin-1-yl)pyridin-3-yl)pyrazolo[1,5-a]pyrimidine-3-carboxamide] | ++ (Compounds with a Cisplatin sensitization value >0.02 μM but <0.2 μM are marked with “++.”) |
| Cc1cncc(NC(=O)c2c(N)nn3cc(F)cnc23)c1N1CCN(C2CCOCC2)CC1 [I-N-123, 2-amino-6-fluoro-N-(5-methyl-4-(4-(tetrahydro-2H-pyran-4-yl)piperazin-1-yl)pyridin-3-yl)pyrazolo[1,5-a]pyrimidine-3-carboxamide] | ++ (Compounds with a Cisplatin sensitization value >0.02 μM but <0.2 μM are marked with “++.”) |
| Nc1nn2cc(F)cnc2c1C(=O)Nc1cncc(Cl)c1N1CCN(C2CCOC2)CC1 (centres unmarked) [I-N-124, 2-amino-N-(5-chloro-4-(4-(tetrahydrofuran-3-yl)piperazin-1-yl)pyridin-3-yl)-6-fluoropyrazolo[1,5-a]pyrimidine-3-carboxamide] | +++ (Compounds with a Cisplatin sensitization value of <0.02 μM are marked with “+++.”) |
| Nc1nn2cc(F)cnc2c1C(=O)Nc1cncc(F)c1N1CCN([C@H]2CCOC2)CC1 [I-N-125, (S)-2-amino-6-fluoro-N-(5-fluoro-4-(4-(tetrahydrofuran-3-yl)piperazin-1-yl)pyridin-3-yl)pyrazolo[1,5-a]pyrimidine-3-carboxamide] | +++ (Compounds with a Cisplatin sensitization value of <0.02 μM are marked with “+++.”) |
